Source: PMC6637691, “Phenothiazinium Dyes Are Active against Trypanosoma cruzi In Vitro” (BioMed Research International, 2019)

Columns and labels:
[1] = system: T. cruzi trypomastigotes; test: ROS measurement (DCFDA, flow cytometry) in trypomastigotes; assay type: cell-based, Trypanosoma cruzi; conditions: 4 × IC50, 2 h
Protocol: (§1) LLCMK2 cells in 75 cm^2 flasks were cultivated to confluence and were infected with 1 × 10^7 T. cruzi trypomastigotes. […] The infected cells were centrifuged for 10 min, 3000 g, and washed with PBS and suspended in trypsin to separate cells and parasites. The cultures were distributed in 1.5 ml microtubes (~ 1 × 10^6 trypomastigotes/tube) and incubated with 4 × IC50 of compounds at 37°C, 5% CO2 for 2 h. Menadione (MN), a classic inducer of cellular oxidative stress, was used as the positive control of ROS production as previously described in [14]. After treatment, the cultures were centrifuged for 10 minutes, 3000 g, and washed with PBS and suspended in trypsin. […] Similarly, the mitochondrial membrane potential was determined after incubation with 5 μM JC-1 under the same conditions. […] In polarized mitochondria, the dye forms J-aggregates, emitting red fluorescence. The cultures were washed with PBS and analyzed in a BD FACS-Canto (BD Biosciences) flow cytometer with the FACSDiva (BD) 6.1.3 software. Due to the size, host cells (infected and noninfected) and trypomastigotes were separately analyzed by flow cytometry. The median of fluorescence of oxidized DCF and the populations with active mitochondria were measured with excitation/emission at 488 nm/529 nm and […]. […]

[2] = system: T. cruzi trypomastigotes; test: Mitochondrial membrane potential (JC-1, flow cytometry) in trypomastigotes; assay type: cell-based, Trypanosoma cruzi; conditions: 4 × IC50, 2 h
Protocol: as §1

[3] = system: noninfected LLCMK2 cells; test: ROS measurement (DCFDA, flow cytometry) in noninfected cells; assay type: cell-based; conditions: 4 × IC50, 2 h
Protocol: as §1

[4] = system: LLCMK2 cells; test: Cytotoxicity (MTT assay); assay type: cell-based; conditions: CC50 LLCMK2 / IC50 amastigotes
Protocol: (§2) The cytotoxic effects of the phenothiazinium dyes in LLCMK2 cells was measured by Thiazolyl Blue Tetrazolium Bromide (MTT) assay, as described in [12]. A suspension of LLCMK2 cells (5 × 10^4/ml) in RPMI supplemented with 10% FBS was distributed in 96-well plates and cultivated (37°C, 5% CO2) to the confluence. […] The cultures were incubated for 72 h, 37°C, and 5% CO2. For the measurement of the […], the media were carefully removed and an MTT solution (500 μg/ml MTT in PBS) was added. The reaction was performed for 4 h at 37°C, 5% CO2. After the reaction, the MTT solution was discarded and the formazan crystals solubilized with DMSO. The absorbance was measured in an ELISA reader (Synergy™ H1, Biotek) at 570 nm. The percentages of proliferation and cytotoxicity were calculated using the mean absorbance of the compound-free control and the absorbance of each treatment. The IC50 and the combination index (CI) were achieved using Compusyn software (http://www.combosyn.com/) and the selective index (CC50/IC50) was also determined. […] For oxidative stress and mitochondrial activity, data were analyzed by one-way ANOVA followed by a Dunnett's post hoc test (compared to nontreated groups) on GraphPad 5.0 software.

[5] = Cytotoxicity (MTT assay); assay type: cell-based; conditions: rhesus monkey; LLCMK2 cells, 72 h, MTT assay
Protocol: as §2

[6] = system: T. cruzi amastigotes; test: Amastigote growth inhibition assay (T. cruzi-LacZ, CPRG readout); assay type: cell-based; conditions: Trypanosoma cruzi, LLC-MK2, amastigotes in LLCMK2 cells, 72 h, 37°C, three independent assays
Protocol: T. cruzi (Tulahuen strain) was maintained in cultures of LLCMK2 cells and cultivated in RMPI supplemented with 10% fetal bovine serum (FBS) at 37°C, 5% CO2. The parasites used in proliferation and flow cytometry assays were genetically modified to express the enzyme β-galactosidase (T. cruzi-LacZ [9]). To illustrate the inhibition of parasite proliferation, a T. cruzi expressing GFP (G-GFP strain [10]) was used.
(§3) LLCMK2 cells were distributed in 96-well plates (5×10^4 cells/ml) and infected with T. cruzi-LacZ at a multiplicity of infection (MOI) of 10:1 (5×10^5 cells/ml). The cultures were incubated for 48 h, 37°C, and 5% CO2 and washed with phosphate buffered saline (PBS). Serial dilutions of compounds (starting from 10 μM) in RPMI were added to the cultures in duplicate and incubated for 72 h, 37°C,and 5% CO2. […] After incubation, the media were removed and followed by the reaction with chlorophenol red-β-D-galactopyranoside (CPRG) buffer (200 μM CPRG, 2% Trion X-100, and 50 mM MgCl2 in PBS) for 4 h, 37°C. The plates were read at 570 nm in ELISA reader (Synergy™ H1, Biotek). Three independent assays were performed.
(§4) The percentages of proliferation and cytotoxicity were calculated using the mean absorbance of the compound-free control and the absorbance of each treatment. The IC50 and the combination index (CI) were achieved using Compusyn software (http://www.combosyn.com/) and the selective index (CC50/IC50) was also determined. From CI values, synergistic (CI < 1), and antagonistic (CI > 1) interactions were identified. For oxidative stress and mitochondrial activity, data were analyzed by one-way ANOVA followed by a Dunnett's post hoc test (compared to nontreated groups) on GraphPad 5.0 software.

[7] = system: T. cruzi amastigotes; test: Drug combination assay against amastigotes (CPRG, Compusyn); assay type: cell-based; conditions: Trypanosoma cruzi
Protocol: as §3, §4
As references, isolated compounds of each combination were evaluated concomitantly in the same plate. The inhibition percentage was calculated in comparison to the nontreated group and the IC50 and CI values were achieved using Compusyn software.

[8] = 72 h, read-out: IC50 (compound 1), compound 1 alone, evaluated in the same plate as the combination
[9] = 72 h, compound 2 alone, evaluated in the same plate as the combination, read-out: IC50 (compound 2)

SMILES | ROS production in trypomastigotes [1] | Mitochondrial membrane potential in trypomastigotes [2] | ROS production in noninfected cells [3] | SI (selectivity index, CC50/IC50) [4] | CC50 at 72 h [5] [µM] | IC50 [6] [µM] | IC50 [7, 8] [µM] | IC50 [7, 9] [µM] | IC50 ([7]; 72 h, compound 1 alone, evaluated in the same plate as the combination, read-out: IC50 (compound 1)) [µM] | IC50 ([7]; 72 h, read-out: IC50 (compound 2), compound 2 alone, evaluated in the same plate as the combination) [µM] | IC50 ([7]; read-out: IC50 (compound 2), compound 2 alone, evaluated in the same plate as the combination) [µM]
O=C(Cn1ccnc1[N+](=O)[O-])NCc1ccccc1 [BZ, Benznidazole] | no ROS production was detected | did not affect mitochondria | increased ROS production | > 58.65 | > 200 | 3.41 ± 0.38 | 3.31 |  |  |  | 
Cc1cc(N(C)C)cc2[s+]c3cc(N(C)C)cc(C)c3nc12 [DMMB, 1,9–Dimethyl Methylene Blue] |  |  |  | 51.26 | 4.46 ± 0.23 | 0.08 ± 0.02 |  | 0.071 |  |  | 
CN(C)c1ccc2nc3ccc(=[N+](C)C)cc-3sc2c1 [MB, Methylene Blue] |  |  |  | 37.40 | 16.8 ± 1.18 | 0.44 ± 0.15 |  | 0.477 | 0.56 |  | 
CC1=CC(=O)c2ccccc2C1=O [MN, Menadione] | increased ROS production | reduced the membrane potential | increased ROS production |  |  |  |  |  |  |  | 
CCNc1cc2[s+]c3cc(NCC)c(C)cc3nc2cc1C [NMB, New Methylene Blue] |  |  |  | 44.71 | 4.19 ± 1.3 | 0.09 ± 0.01 | 0.122 | 0.1 |  |  | 
Cc1cc2nc3ccc(N(C)C)cc3[s+]c2cc1N [TBO, Toluidine Blue O] |  |  |  | 28.61 | 7.93 ± 5.22 | 0.27 ± 0.11 | 0.381 |  |  | 0.322 | 0.322
